Results: ChEMBL document CHEMBL1201862, “PubChem BioAssay data set” (2004)
Active and inactive are the calls of the source.

Key:
[1] = biological target: Heat shock protein HSP 90-alpha (Homo sapiens, UniProt P07900); type: functional, organism-based
Cysteine protease ATG4B = Cysteine protease ATG4B (Homo sapiens, UniProt Q9Y4P1); type: functional;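 note: Fluorescence-based dose-response confirmation assay measuring inhibition of ATG4B activity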
Phospholipase A2 = Phospholipase A2 (Homo sapiens, UniProt P04054); type: functional;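 note: confirmatory dose-response counterscreen on phospholipase A2, testing hits that came from an ultra-high-throughput screen for ATG4B inhibitors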
[2] = biological target: T1, Rac GTPase-activating protein 1 (Homo sapiens, UniProt Q9H0H5); assay: MgcRacGAP GTPase-activating activity inhibitors, confirmation, biochemical, ADP Hunter fluorescence, primary and confirmatory (AID 624330); type: functional
T1 sequence (Q9H0H5 whole entry): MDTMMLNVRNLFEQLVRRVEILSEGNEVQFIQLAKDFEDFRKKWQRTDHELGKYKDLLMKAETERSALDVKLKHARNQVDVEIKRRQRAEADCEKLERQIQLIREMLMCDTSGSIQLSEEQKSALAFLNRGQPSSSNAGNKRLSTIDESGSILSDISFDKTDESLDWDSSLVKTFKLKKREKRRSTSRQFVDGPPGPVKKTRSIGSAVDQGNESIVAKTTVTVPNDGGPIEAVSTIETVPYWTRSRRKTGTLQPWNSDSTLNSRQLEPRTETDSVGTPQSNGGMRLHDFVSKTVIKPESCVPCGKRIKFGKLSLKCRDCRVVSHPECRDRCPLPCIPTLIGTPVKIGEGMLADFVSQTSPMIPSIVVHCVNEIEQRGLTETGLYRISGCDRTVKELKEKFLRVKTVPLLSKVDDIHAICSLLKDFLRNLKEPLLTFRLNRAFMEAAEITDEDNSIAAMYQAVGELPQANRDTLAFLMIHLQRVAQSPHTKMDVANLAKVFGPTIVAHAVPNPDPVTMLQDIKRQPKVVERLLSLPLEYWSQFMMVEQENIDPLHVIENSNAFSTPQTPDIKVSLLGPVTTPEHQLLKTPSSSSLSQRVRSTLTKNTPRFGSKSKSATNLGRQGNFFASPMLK

[3] = biological target: 26S proteasome non-ATPase regulatory subunit 14 (Homo sapiens, UniProt O00487); assay: inhibition of proteasome subunit RPN11 – biochemical, fluorescence polarization, uHTS hits, confirmation (AID 602368); type: functional
[4] = biological target: 72 kDa type IV collagenase (Homo sapiens, UniProt P08253); assay: Dose Response validation of uHTS RPN11 inhibitor hits using a MMP-2 Fluorescence assay.; type: functional
Prothrombin = Prothrombin (Bos taurus, UniProt P00735); assay: thrombin inhibition, dose response, biochemical, fluorescence polarization, uHTS hits (AID 602369); type: functional
[5] = biological target: T2, DNA repair protein RAD52 homolog (Homo sapiens, UniProt P43351); type: functional, biochemical
T2 sequence (P43351 whole entry): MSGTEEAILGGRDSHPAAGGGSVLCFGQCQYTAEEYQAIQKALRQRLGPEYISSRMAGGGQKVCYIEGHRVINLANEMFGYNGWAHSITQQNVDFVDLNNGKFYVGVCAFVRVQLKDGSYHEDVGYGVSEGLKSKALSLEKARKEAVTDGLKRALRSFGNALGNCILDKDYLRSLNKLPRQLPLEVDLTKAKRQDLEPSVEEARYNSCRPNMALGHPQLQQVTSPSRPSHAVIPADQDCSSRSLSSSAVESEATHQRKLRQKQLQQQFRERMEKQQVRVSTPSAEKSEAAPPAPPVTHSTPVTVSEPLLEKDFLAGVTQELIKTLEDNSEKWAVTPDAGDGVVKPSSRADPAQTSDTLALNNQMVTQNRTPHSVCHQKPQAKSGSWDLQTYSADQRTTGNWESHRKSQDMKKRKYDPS

[6] = HeLa cell cytotoxicity, dose response, cytotoxicity control for MgcRacGAP inhibitor project (AID 624300); type: functional
BJ [7] = assay: cells; type: functional, cell-based; conditions: Homo sapiens
BJ [8] = assay: cytotoxicity toward Ras-transformed BJeLR fibroblasts, dose response, cell-based, alamar blue fluorescence, cherrypicked samples (AID 2631); type: functional; conditions: Homo sapiens;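 note: confirmatory dose-response assay in RAS-dependent BJ fibroblasts engineered with TERT, LT and ST, with cytotoxicity read by fluorescence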
BJ [9] = assay: cytotoxicity toward BJ-TERT-LT-ST fibroblasts, dose response, cell-based, RAS-independent, luminescence (AID 1935); type: functional; conditions: Homo sapiens;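 note: BJ fibroblasts immortalized with TERT plus LT and ST oncogenes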
BJ [10] = assay: cytotoxicity toward BJ-TERT fibroblasts, dose response, cell-based, RAS-independent, luminescence (AID 1933); type: functional; conditions: Homo sapiens
[11] = cytotoxicity toward DRD oncogenic fibroblasts, dose response, cell-based, non-viral oncogenic, luminescence (AID 1934); type: functional; conditions: Homo sapiens
[12] = biological target: T3, Sentrin-specific protease 6 (Homo sapiens, UniProt Q9GZR1); assay: SAR Analysis of small molecule inhibitors of Sentrin-specific protease 6 (SENP6) using a Luminescent assay. [Related pubchem assays (depositor defined):AID2582, AID2599]; type: functional
T3 sequence (Q9GZR1 whole entry): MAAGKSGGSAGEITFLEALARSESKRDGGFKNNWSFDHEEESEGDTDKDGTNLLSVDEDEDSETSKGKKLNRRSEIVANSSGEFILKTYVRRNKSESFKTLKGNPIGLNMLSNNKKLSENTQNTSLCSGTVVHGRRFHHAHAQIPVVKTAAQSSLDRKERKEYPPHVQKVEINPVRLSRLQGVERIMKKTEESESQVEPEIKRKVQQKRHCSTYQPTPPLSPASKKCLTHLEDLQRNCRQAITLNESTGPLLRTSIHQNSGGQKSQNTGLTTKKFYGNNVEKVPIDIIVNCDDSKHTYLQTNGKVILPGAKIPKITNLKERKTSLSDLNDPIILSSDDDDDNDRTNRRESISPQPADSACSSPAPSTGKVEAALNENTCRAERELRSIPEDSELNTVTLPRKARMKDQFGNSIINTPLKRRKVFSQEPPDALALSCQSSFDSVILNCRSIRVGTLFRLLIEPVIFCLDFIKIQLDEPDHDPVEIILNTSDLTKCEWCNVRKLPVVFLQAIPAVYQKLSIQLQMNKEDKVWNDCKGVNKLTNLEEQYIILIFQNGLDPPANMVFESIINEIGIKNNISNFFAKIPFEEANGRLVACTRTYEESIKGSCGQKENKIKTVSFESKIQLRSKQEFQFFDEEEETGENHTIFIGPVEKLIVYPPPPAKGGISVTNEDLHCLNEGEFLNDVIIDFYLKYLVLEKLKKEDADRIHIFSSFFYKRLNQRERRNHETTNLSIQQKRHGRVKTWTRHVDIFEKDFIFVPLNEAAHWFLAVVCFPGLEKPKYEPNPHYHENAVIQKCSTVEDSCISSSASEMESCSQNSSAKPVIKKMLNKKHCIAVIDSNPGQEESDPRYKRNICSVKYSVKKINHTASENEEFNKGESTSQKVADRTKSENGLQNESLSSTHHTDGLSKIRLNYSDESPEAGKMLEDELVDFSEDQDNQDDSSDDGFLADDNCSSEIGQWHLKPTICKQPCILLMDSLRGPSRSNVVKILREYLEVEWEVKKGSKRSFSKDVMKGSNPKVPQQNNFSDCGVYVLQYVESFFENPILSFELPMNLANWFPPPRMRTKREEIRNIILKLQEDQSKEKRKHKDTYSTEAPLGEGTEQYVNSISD

[13] = biological target: T4, Sentrin-specific protease 7 (Homo sapiens, UniProt Q9BQF6); assay: SENP7 protease inhibitors, SAR follow-up, biochemical, luminescence (AID 504497); type: functional
T4 sequence (Q9BQF6 whole entry): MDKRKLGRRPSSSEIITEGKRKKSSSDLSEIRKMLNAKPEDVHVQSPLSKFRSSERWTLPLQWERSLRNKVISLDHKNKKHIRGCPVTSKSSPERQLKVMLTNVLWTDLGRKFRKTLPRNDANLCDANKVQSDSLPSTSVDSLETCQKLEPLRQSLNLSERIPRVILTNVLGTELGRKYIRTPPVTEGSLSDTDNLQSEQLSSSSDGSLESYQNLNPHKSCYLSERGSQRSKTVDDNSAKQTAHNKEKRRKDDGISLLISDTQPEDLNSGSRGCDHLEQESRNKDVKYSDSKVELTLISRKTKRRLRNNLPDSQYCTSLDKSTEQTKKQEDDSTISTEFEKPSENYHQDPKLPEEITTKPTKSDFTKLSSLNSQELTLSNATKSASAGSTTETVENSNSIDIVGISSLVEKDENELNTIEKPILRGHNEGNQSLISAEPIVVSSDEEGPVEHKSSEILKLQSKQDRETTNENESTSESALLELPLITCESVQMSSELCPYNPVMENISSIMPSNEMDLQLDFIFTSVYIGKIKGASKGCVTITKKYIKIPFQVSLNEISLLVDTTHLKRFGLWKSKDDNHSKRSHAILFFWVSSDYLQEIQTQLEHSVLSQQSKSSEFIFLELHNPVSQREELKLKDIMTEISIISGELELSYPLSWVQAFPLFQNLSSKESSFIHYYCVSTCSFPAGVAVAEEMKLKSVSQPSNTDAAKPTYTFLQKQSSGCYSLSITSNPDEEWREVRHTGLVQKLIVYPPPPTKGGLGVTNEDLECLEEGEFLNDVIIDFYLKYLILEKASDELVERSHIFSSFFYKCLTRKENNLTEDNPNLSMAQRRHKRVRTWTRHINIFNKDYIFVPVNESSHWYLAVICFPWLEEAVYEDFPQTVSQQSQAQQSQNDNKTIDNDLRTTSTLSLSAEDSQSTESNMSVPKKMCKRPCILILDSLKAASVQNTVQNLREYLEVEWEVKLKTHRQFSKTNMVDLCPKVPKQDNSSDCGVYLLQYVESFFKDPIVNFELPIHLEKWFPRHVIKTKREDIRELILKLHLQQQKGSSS

[14] = biological target: T5, Sentrin-specific protease 8 (Homo sapiens, UniProt Q96LD8); assay: SENP8 protease inhibitors, SAR follow-up, biochemical, luminescence (AID 504501); type: functional
T5 sequence (Q96LD8 whole entry): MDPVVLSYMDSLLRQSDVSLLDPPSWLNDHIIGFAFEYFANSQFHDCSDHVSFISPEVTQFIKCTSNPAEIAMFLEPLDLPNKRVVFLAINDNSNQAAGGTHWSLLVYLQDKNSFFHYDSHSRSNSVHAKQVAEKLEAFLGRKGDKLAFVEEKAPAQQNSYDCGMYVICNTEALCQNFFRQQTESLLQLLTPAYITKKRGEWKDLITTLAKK

Caspase-3 = biological target: T6, Caspase-3 (Homo sapiens, UniProt P42574); assay: SAR Analysis of small molecule inhibitors of Sentrin-specific proteases (SENPs) using a Caspase-3 Selectivity assay. [Related pubchem assays (depositor defined):AID2540, AID2599, AID434973, AID489001]; type: functional
T6 sequence (P42574 whole entry): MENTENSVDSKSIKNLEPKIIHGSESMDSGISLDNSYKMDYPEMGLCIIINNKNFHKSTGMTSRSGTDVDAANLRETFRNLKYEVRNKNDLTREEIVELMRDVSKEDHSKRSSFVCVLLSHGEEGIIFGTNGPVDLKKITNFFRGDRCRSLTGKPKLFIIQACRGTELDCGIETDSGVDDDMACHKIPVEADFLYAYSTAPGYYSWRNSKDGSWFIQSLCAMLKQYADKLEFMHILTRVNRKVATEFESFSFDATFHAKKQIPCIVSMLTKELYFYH

HEK293 [15] = assay: cells; type: functional, cell-based; conditions: Homo sapiens
HEK293 [16] = assay: NOD2 signaling inhibitors in MDP-stimulated cells, cell-based, uHTS, luminescence (AID 2001); type: functional; conditions: Homo sapiens
HEK293 [17] = assay: NOD1 signaling inhibitors, primary screen, cell-based, luminescence, uHTS (AID 1578); type: functional; conditions: Homo sapiens
HEK293 [18] = assay: cells; type: functional, cell-based; conditions: Homo sapiens; remark: listed apart in the source
[19] = biological target: Nucleotide-binding oligomerization domain-containing protein 2 (Homo sapiens, UniProt Q9HC29); assay: NOD2 signaling inhibitors, cell-based, luminescence, uHTS, HEK293 (AID 1566); type: functional
HEK293 [20] = assay: cells; type: functional, cell-based; conditions: Homo sapiens; remark: listed apart in the source

Chain of Cysteine protease ATG4B (Q9Y4P1 whole entry): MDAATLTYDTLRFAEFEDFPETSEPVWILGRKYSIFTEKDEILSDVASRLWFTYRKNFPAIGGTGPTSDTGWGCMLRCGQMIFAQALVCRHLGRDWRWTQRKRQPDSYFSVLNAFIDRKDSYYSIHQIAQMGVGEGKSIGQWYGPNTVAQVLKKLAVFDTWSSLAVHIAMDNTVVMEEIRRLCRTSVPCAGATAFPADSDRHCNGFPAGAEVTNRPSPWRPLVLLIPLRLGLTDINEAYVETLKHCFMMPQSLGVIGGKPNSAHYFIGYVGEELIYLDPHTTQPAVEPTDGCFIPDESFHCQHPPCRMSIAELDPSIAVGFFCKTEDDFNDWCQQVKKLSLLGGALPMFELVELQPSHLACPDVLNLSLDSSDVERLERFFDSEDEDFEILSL
Chain of Phospholipase A2 (P04054 whole entry): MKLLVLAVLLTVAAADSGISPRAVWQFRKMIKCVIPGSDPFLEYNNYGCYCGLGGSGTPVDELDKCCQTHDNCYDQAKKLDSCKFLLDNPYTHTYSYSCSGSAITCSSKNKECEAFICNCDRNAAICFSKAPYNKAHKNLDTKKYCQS
Chain of Nucleotide-binding oligomerization domain-containing protein 2 (Q9HC29 whole entry, the tested form may be a part): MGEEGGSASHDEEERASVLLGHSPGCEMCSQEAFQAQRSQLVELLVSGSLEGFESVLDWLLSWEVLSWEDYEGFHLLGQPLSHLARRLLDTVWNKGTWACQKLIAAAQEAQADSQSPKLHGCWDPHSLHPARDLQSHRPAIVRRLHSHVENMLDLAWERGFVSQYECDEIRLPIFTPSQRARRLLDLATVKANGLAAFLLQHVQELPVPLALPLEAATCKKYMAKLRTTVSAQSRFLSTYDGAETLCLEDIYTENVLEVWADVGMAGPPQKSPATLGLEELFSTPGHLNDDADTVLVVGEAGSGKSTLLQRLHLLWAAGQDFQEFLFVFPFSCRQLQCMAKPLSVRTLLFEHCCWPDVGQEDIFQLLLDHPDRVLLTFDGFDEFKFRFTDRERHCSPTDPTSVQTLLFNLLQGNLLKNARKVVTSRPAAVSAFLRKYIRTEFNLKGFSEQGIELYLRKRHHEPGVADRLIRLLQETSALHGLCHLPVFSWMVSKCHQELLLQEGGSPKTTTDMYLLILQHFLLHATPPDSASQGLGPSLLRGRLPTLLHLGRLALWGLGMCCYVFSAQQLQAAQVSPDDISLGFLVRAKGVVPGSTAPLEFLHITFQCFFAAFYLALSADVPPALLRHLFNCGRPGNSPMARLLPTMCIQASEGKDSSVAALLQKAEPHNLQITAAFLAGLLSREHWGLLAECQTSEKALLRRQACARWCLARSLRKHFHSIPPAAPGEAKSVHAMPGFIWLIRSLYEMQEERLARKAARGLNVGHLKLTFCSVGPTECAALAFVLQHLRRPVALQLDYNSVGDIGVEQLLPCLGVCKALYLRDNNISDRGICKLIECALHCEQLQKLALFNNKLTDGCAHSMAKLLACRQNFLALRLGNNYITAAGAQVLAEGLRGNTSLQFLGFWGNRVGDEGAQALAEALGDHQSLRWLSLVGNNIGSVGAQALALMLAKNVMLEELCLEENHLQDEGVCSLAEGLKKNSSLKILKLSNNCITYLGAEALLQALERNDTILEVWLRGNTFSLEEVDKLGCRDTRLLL
Chain of 72 kDa type IV collagenase (P08253 whole entry): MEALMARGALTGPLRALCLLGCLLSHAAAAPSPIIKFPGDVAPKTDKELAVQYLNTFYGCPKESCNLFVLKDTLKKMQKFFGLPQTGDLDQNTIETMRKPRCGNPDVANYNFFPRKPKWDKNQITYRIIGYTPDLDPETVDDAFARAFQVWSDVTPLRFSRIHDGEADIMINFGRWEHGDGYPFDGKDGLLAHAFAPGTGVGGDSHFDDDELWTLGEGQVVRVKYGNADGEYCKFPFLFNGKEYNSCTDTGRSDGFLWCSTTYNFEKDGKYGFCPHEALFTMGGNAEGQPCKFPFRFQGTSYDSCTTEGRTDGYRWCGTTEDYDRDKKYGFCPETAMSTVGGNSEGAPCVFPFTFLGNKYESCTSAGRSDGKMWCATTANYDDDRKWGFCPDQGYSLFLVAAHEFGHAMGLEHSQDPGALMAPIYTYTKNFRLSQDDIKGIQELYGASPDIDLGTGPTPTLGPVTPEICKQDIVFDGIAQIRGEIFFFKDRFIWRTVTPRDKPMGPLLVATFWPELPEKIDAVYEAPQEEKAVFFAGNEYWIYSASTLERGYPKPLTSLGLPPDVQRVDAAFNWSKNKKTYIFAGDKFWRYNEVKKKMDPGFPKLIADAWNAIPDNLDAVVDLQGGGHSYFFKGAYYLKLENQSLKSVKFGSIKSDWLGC
Chain of 26S proteasome non-ATPase regulatory subunit 14 (O00487 whole entry): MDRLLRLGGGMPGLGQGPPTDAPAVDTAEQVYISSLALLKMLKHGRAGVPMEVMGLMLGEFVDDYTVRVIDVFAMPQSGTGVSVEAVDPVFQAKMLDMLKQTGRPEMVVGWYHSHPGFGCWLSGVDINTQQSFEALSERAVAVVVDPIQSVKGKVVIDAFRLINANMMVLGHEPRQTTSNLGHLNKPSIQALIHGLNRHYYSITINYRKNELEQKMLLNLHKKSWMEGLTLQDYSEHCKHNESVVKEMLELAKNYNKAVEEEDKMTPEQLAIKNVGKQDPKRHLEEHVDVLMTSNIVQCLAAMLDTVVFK

SMILES	IC50 (Cysteine protease ATG4B)	IC50 (Phospholipase A2)	EC50 (BJ [7])	EC50 (BJ [8])	EC50 (BJ [9])	EC50 (BJ [10])	EC50 [11]	IC50 [12]	IC50 [13]	IC50 [14]	IC50 (Caspase-3)	other results
CCCCCCCCCCCCCCCC(O)C[N+](C)(C)CCO (stereo not given)	7.58 µM (active)	6.53 µM (active)	–	–	–	–	–	–	–	–	–	AC50 [1]: 5 µM (active); IC50 [2]: 86 µM (active); IC50 [3]: 22.1 µM (active); IC50 [4]: 81.8 µM (active); IC50 (Prothrombin): 45.1 µM (active); AC50 [5]: < 30.4 µM (active); CC50 [6]: 33.4 µM (active)
COc1cccc(/C=C2\SC(=S)N(CCCC(=O)Nc3cc(C)on3)C2=O)c1	–	–	> 150 µM (not active)	> 133 µM (inactive)	> 150 µM (not active)	3.22 µM (inconclusive)	> 150 µM (not active)	–	–	–	–	–
O=C(O)c1ccc(N/N=C/c2cn(Cc3ccccc3)c3ccccc23)cc1	–	–	–	–	–	–	–	> 99 µM (inactive)	96.9 µM (active)	> 99 µM (inactive)	> 99 µM (inactive)	–
CCCC(=O)Nc1ccc(-c2nc3cc(Cl)ccc3s2)cc1	–	–	–	–	–	–	–	84.4 µM (active)	10.9 µM (active)	82.4 µM (active)	18.7 µM (active)	–
O=C1SC(Cc2ccccc2)C(=O)N1c1ccccc1 (stereo not given)	–	–	> 150 µM (not active)	> 66.7 µM (inactive)	> 150 µM (not active)	5.85 µM (active)	20.8 µM (active)	–	–	–	–	–
CC(=O)Nc1ccc(C(=O)Nc2nc(-c3cc(C)n(Cc4ccccc4)c3C)cs2)cc1	10.2 µM (active)	5.37 µM (active)	–	–	–	–	–	–	–	–	–	IC50 (HEK293 [15]): > 20 µM (inactive); IC50 (HEK293 [16]): > 20 µM (inactive); EC50 (HEK293 [17]): > 20 µM (inactive); IC50 (HEK293 [18]): > 20 µM (inactive); EC50 [19]: > 20 µM (inactive); IC50 (HEK293 [20]): > 20 µM (inactive)
